# Measurements taken from the supplement of paper PMC8741786.
# System: Neisseria subflava/flavescens/perflava
# Assay: minimum inhibitory concentration (ETEST)
# Method: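 Oropharyngeal Neisseria isolates from MSM and employees in Belgium were identified to species by MALDI-TOF MS. MICs of azithromycin, ceftriaxone and ciprofloxacin were determined by ETEST on GC agar after 24 h at 36.5 °C and 5-7% CO2, in mg/L. Values beyond the strip range are reported as >256 (azithromycin) or <0.016 (ceftriaxone); isolates that did not grow are NA.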
smiles,measurement,setting,value
CC[C@H]1OC(=O)[C@H](C)[C@@H](O[C@H]2C[C@@](C)(OC)[C@@H](O)[C@H](C)O2)[C@H](C)[C@@H](O[C@@H]2O[C@H](C)C[C@H](N(C)C)[C@H]2O)[C@](C)(O)C[C@@H](C)CN(C)[C@H](C)[C@@H](O)[C@]1(C)O [azithromycin],minimum inhibitory concentration,"isolate id (sample isolate): 19041762_1, population: MSM, antibiotic use in previous 6 months: Yes",> 256 mg/L
same,minimum inhibitory concentration,"isolate id (sample isolate): 19041762_1.1, population: MSM, antibiotic use in previous 6 months: Yes",> 256 mg/L
same,minimum inhibitory concentration,"isolate id (sample isolate): 19041780_1, population: MSM, antibiotic use in previous 6 months: Yes",> 256 mg/L
same,minimum inhibitory concentration,"isolate id (sample isolate): 19042150_1, population: MSM, antibiotic use in previous 6 months: Yes",64 mg/L
same,minimum inhibitory concentration,"isolate id (sample isolate): 19042150_3, population: MSM, antibiotic use in previous 6 months: Yes",> 256 mg/L
same,minimum inhibitory concentration,"isolate id (sample isolate): 19042756_1, population: MSM, antibiotic use in previous 6 months: Yes",> 256 mg/L
same,minimum inhibitory concentration,"isolate id (sample isolate): 19042756_2, population: MSM, antibiotic use in previous 6 months: Yes",> 256 mg/L
same,minimum inhibitory concentration,"isolate id (sample isolate): 19043201_1.1, population: MSM, antibiotic use in previous 6 months: No",96 mg/L
same,minimum inhibitory concentration,"isolate id (sample isolate): 19043201_2.1, population: MSM, antibiotic use in previous 6 months: No",> 256 mg/L
same,minimum inhibitory concentration,"isolate id (sample isolate): 19043201_3, population: MSM, antibiotic use in previous 6 months: No",96 mg/L
same,minimum inhibitory concentration,"isolate id (sample isolate): 19043274_3, population: MSM, antibiotic use in previous 6 months: Yes",128 mg/L
same,minimum inhibitory concentration,"isolate id (sample isolate): 19050474_1, population: MSM, antibiotic use in previous 6 months: No",8 mg/L
same,minimum inhibitory concentration,"isolate id (sample isolate): 19050514_1, population: MSM, antibiotic use in previous 6 months: Yes",> 256 mg/L
same,minimum inhibitory concentration,"isolate id (sample isolate): 19050949_1, population: MSM, antibiotic use in previous 6 months: No",3 mg/L
same,minimum inhibitory concentration,"isolate id (sample isolate): 19050949_2, population: MSM, antibiotic use in previous 6 months: No",4 mg/L
same,minimum inhibitory concentration,"isolate id (sample isolate): 19050949_2.1, population: MSM, antibiotic use in previous 6 months: No",4 mg/L
same,minimum inhibitory concentration,"isolate id (sample isolate): 19051904_2, population: MSM, antibiotic use in previous 6 months: Yes",2 mg/L
same,minimum inhibitory concentration,"isolate id (sample isolate): 19051904_3, population: MSM, antibiotic use in previous 6 months: Yes",1.5 mg/L
same,minimum inhibitory concentration,"isolate id (sample isolate): 19052394_1, population: MSM, antibiotic use in previous 6 months: Yes",2 mg/L
same,minimum inhibitory concentration,"isolate id (sample isolate): 19052394_1.1, population: MSM, antibiotic use in previous 6 months: Yes",1.5 mg/L
same,minimum inhibitory concentration,"isolate id (sample isolate): 19060089_1, population: MSM, antibiotic use in previous 6 months: Yes",8 mg/L
same,minimum inhibitory concentration,"isolate id (sample isolate): 19062994_1, population: MSM, antibiotic use in previous 6 months: Yes",2 mg/L
same,minimum inhibitory concentration,"isolate id (sample isolate): Co000761_2, population: general population, antibiotic use in previous 6 months: No",2 mg/L
same,minimum inhibitory concentration,"isolate id (sample isolate): Co000761_3, population: general population, antibiotic use in previous 6 months: No",4 mg/L
same,minimum inhibitory concentration,"isolate id (sample isolate): Co000761_5, population: general population, antibiotic use in previous 6 months: No",6 mg/L
same,minimum inhibitory concentration,"isolate id (sample isolate): Co000761_6, population: general population, antibiotic use in previous 6 months: No",3 mg/L
same,minimum inhibitory concentration,"isolate id (sample isolate): Co000762_3, population: general population, antibiotic use in previous 6 months: No",6 mg/L
same,minimum inhibitory concentration,"isolate id (sample isolate): Co000762_4, population: general population, antibiotic use in previous 6 months: No",4 mg/L
same,minimum inhibitory concentration,"isolate id (sample isolate): Co000763_2, population: general population, antibiotic use in previous 6 months: No",2 mg/L
same,minimum inhibitory concentration,"isolate id (sample isolate): Co000764_1, population: general population, antibiotic use in previous 6 months: No",8 mg/L
same,minimum inhibitory concentration,"isolate id (sample isolate): Co000764_2, population: general population, antibiotic use in previous 6 months: No",8 mg/L
same,minimum inhibitory concentration,"isolate id (sample isolate): Co000765_2, population: general population, antibiotic use in previous 6 months: No",3 mg/L
same,minimum inhibitory concentration,"isolate id (sample isolate): Co000765_3, population: general population, antibiotic use in previous 6 months: No",3 mg/L
same,minimum inhibitory concentration,"isolate id (sample isolate): Co000765_4, population: general population, antibiotic use in previous 6 months: No",3 mg/L
same,minimum inhibitory concentration,"isolate id (sample isolate): Co000766_1, population: general population, antibiotic use in previous 6 months: No",6 mg/L
same,minimum inhibitory concentration,"isolate id (sample isolate): Co000766_3, population: general population, antibiotic use in previous 6 months: No",1 mg/L
same,minimum inhibitory concentration,"isolate id (sample isolate): Co000767_1, population: general population, antibiotic use in previous 6 months: No",1 mg/L
same,minimum inhibitory concentration,"isolate id (sample isolate): Co000767_2, population: general population, antibiotic use in previous 6 months: No",6 mg/L
same,minimum inhibitory concentration,"isolate id (sample isolate): Co000767_4, population: general population, antibiotic use in previous 6 months: No",1.5 mg/L
same,minimum inhibitory concentration,"isolate id (sample isolate): Co000767_5, population: general population, antibiotic use in previous 6 months: No",1.5 mg/L
same,minimum inhibitory concentration,"isolate id (sample isolate): Co000767_6, population: general population, antibiotic use in previous 6 months: No",0.75 mg/L
same,minimum inhibitory concentration,"isolate id (sample isolate): Co000767_7, population: general population, antibiotic use in previous 6 months: No",1.5 mg/L
same,minimum inhibitory concentration,"isolate id (sample isolate): Co000768_1, population: general population, antibiotic use in previous 6 months: No",2 mg/L
same,minimum inhibitory concentration,"isolate id (sample isolate): Co000768_2, population: general population, antibiotic use in previous 6 months: No",3 mg/L
same,minimum inhibitory concentration,"isolate id (sample isolate): Co000769_1, population: general population, antibiotic use in previous 6 months: No",4 mg/L
same,minimum inhibitory concentration,"isolate id (sample isolate): Co000769_2, population: general population, antibiotic use in previous 6 months: No",2 mg/L
same,minimum inhibitory concentration,"isolate id (sample isolate): Co000769_4, population: general population, antibiotic use in previous 6 months: No",4 mg/L
same,minimum inhibitory concentration,"isolate id (sample isolate): Co000770_2, population: general population, antibiotic use in previous 6 months: No",2 mg/L
same,minimum inhibitory concentration,"isolate id (sample isolate): Co000770_4, population: general population, antibiotic use in previous 6 months: No",4 mg/L
same,minimum inhibitory concentration,"isolate id (sample isolate): Co000770_6, population: general population, antibiotic use in previous 6 months: No",3 mg/L
same,minimum inhibitory concentration,"isolate id (sample isolate): Co000771_2, population: general population, antibiotic use in previous 6 months: No",6 mg/L
same,minimum inhibitory concentration,"isolate id (sample isolate): Co000771_3, population: general population, antibiotic use in previous 6 months: No",6 mg/L
same,minimum inhibitory concentration,"isolate id (sample isolate): Co000771_5, population: general population, antibiotic use in previous 6 months: No",3 mg/L
same,minimum inhibitory concentration,"isolate id (sample isolate): Co000772_1, population: general population, antibiotic use in previous 6 months: No",2 mg/L
same,minimum inhibitory concentration,"isolate id (sample isolate): Co000772_2, population: general population, antibiotic use in previous 6 months: No",3 mg/L
same,minimum inhibitory concentration,"isolate id (sample isolate): Co000772_4, population: general population, antibiotic use in previous 6 months: No",4 mg/L
same,minimum inhibitory concentration,"isolate id (sample isolate): Co000772_5, population: general population, antibiotic use in previous 6 months: No",3 mg/L
same,minimum inhibitory concentration,"isolate id (sample isolate): Co000772_6, population: general population, antibiotic use in previous 6 months: No",4 mg/L
same,minimum inhibitory concentration,"isolate id (sample isolate): Co000773_1, population: general population, antibiotic use in previous 6 months: No",2 mg/L
same,minimum inhibitory concentration,"isolate id (sample isolate): Co000773_2, population: general population, antibiotic use in previous 6 months: No",3 mg/L
same,minimum inhibitory concentration,"isolate id (sample isolate): Co000774_2, population: general population, antibiotic use in previous 6 months: No",3 mg/L
same,minimum inhibitory concentration,"isolate id (sample isolate): Co000775_1, population: general population, antibiotic use in previous 6 months: No",2 mg/L
same,minimum inhibitory concentration,"isolate id (sample isolate): Co000775_2, population: general population, antibiotic use in previous 6 months: No",4 mg/L
same,minimum inhibitory concentration,"isolate id (sample isolate): Co000775_3, population: general population, antibiotic use in previous 6 months: No",0.094 mg/L
same,minimum inhibitory concentration,"isolate id (sample isolate): Co000776_2, population: general population, antibiotic use in previous 6 months: No",32 mg/L
same,minimum inhibitory concentration,"isolate id (sample isolate): Co000776_3, population: general population, antibiotic use in previous 6 months: No",24 mg/L
same,minimum inhibitory concentration,"isolate id (sample isolate): Co000777_1, population: general population, antibiotic use in previous 6 months: No",2 mg/L
same,minimum inhibitory concentration,"isolate id (sample isolate): Co000777_2, population: general population, antibiotic use in previous 6 months: No",0.25 mg/L
same,minimum inhibitory concentration,"isolate id (sample isolate): Co000777_4, population: general population, antibiotic use in previous 6 months: No",> 256 mg/L
same,minimum inhibitory concentration,"isolate id (sample isolate): Co000778_1, population: general population, antibiotic use in previous 6 months: No",3 mg/L
same,minimum inhibitory concentration,"isolate id (sample isolate): Co000778_2, population: general population, antibiotic use in previous 6 months: No",2 mg/L
same,minimum inhibitory concentration,"isolate id (sample isolate): Co000778_3, population: general population, antibiotic use in previous 6 months: No",4 mg/L
